Values of other authors as cited in PubChem BioAssay AID1259409 (Chemical Carcinogenesis Research Information System (CCRIS), 2018).

Tested on: rodent chemically induced tumor inhibition, incidence and multiplicity
Experiment: CCRIS tumor inhibitor studies
Conditions: Dose [Inhibitor]: 0

Row | SMILES | tumour outcome (control, treated, inhibition, significance) (Carcinogen: 7,12-DIMETHYLBENZ[A]ANTHRACENE, 57-97-6, 0.2 PPM IN DIET BEGINNING 3 D PRIOR TO CARCINOGEN DOSE AND CONTINUING FOR 8 MO (STUDY DURATION: 8 MO), Route [Inhibitor]: ORAL, Species: MOUSE, Strain/Sex: BALB/FEMALE, Target Tissue: Type of Lesion: MAMMARY GLAND: ADENOCARCINOMA, Dose [Carcinogen]: 1 MG/WK FOR 6 WK, Promoter: NONE USED) | tumour outcome (control, treated, inhibition, significance) (Carcinogen: 7,12-DIMETHYLBENZ[A]ANTHRACENE, 57-97-6, 2 PPM IN DIET BEGINNING 3 D PRIOR TO CARCINOGEN DOSE AND CONTINUING FOR 8 MO (STUDY DURATION: 8 MO), Route [Inhibitor]: ORAL, Species: MOUSE, Strain/Sex: BALB/FEMALE, Target Tissue: Type of Lesion: MAMMARY GLAND: ADENOCARCINOMA, Dose [Carcinogen]: 1 MG/WK FOR 6 WK, Promoter: NONE USED) | tumour outcome (control, treated, inhibition, significance) (Carcinogen: DIETHYLNITROSAMINE, 55-18-5, 0.5-1 MG IN PELLET IMPLANTED 1/MONTH FOR 26 WK BEGINNING 30 D POST CARCINOGEN TREATMENT. DOSING BEGAN SAME DAY OF ORC, Route [Inhibitor]: SUBCUTANEOUS, Species: MOUSE, Strain/Sex: B6C3F1/MALE, Target Tissue: Type of Lesion: LIVER: TUMOR, Dose [Carcinogen]: 2.5 UG/G BW IN SALINE ONCE, Promoter: NONE) | tumour outcome (control, treated, inhibition, significance) (Carcinogen: N-ETHYL-N-NITROSOUREA, 759-73-9, 0.1 MG PELLET IMPLANTED WITHIN 24 HR OF BIRTH AND REPLACED EVERY 2 MO (STUDY DURATION: 8 MO), Route [Inhibitor]: SUBCUTANEOUS IMPLANT, Species: RAT, Strain/Sex: WF X LE F1/FEMALE, Target Tissue: Type of Lesion: TRIGEMINAL NERVE: SCHWANNOMA, Dose [Carcinogen]: 40 MG/KG ONCE WITHIN 24 HR OF BIRTH, Promoter: NONE USED) | outcome (Carcinogen: N-ETHYL-N-NITROSOUREA, 759-73-9, 0.1 MG PELLET IMPLANTED WITHIN 24 HR OF BIRTH AND REPLACED EVERY 2 MO (STUDY DURATION: 8 MO), Route [Inhibitor]: SUBCUTANEOUS IMPLANT, Species: RAT, Strain/Sex: WF X LE F1/MALE, Target Tissue: Type of Lesion: KIDNEY: TUMOR, Dose [Carcinogen]: 40 MG/KG ONCE WITHIN 24 HR OF BIRTH, Promoter: NONE USED) | tumour outcome (control, treated, inhibition, significance) (Carcinogen: N-ETHYL-N-NITROSOUREA, 759-73-9, 0.1 MG PELLET IMPLANTED WITHIN 24 HR OF BIRTH AND REPLACED EVERY 2 MO (STUDY DURATION: 8 MO), Route [Inhibitor]: SUBCUTANEOUS IMPLANT, Species: RAT, Strain/Sex: WF X LE F1/MALE, Target Tissue: Type of Lesion: TRIGEMINAL NERVE: SCHWANNOMA, Dose [Carcinogen]: 40 MG/KG ONCE WITHIN 24 HR OF BIRTH, Promoter: NONE USED) | tumour outcome (control, treated, inhibition, significance) (Carcinogen: N-METHYL-N-NITROSOUREA, 684-93-5, 2.5 MG IN CHOLESTEROL PELLET IMPLANTED 2 WK PRIOR TO CARCINOGEN DOSE AND REPLACED EVERY 4 WK (STUDY DURATION: 36 WK), Route [Inhibitor]: SUBCUTANEOUS IMPLANT, Species: RAT, Strain/Sex: F344/FEMALE, Target Tissue: Type of Lesion: MAMMARY GLAND: CARCINOMA, Dose [Carcinogen]: 50 MG/KG BW ONCE, Promoter: NONE USED) | tumour outcome (control, treated, inhibition, significance) (Carcinogen: N-METHYL-N-NITROSOUREA, 684-93-5, 2.5 MG IN CHOLESTEROL PELLET IMPLANTED AT TIME OF CARCINOGEN DOSE AND REPLACED EVERY 4 WK (STUDY DURATION: 35 WK), Route [Inhibitor]: SUBCUTANEOUS IMPLANT, Species: RAT, Strain/Sex: F344/MALE, Target Tissue: Type of Lesion: MAMMARY GLAND: CARCINOMA, Dose [Carcinogen]: 50 MG/KG BW ONCE, Promoter: NONE USED) | tumour outcome (control, treated, inhibition, significance) (Carcinogen: N-METHYL-N-NITROSOUREA, 684-93-5, 20 UG IN SILASTIC CAPSULES FOR 3 WK IMPLANTED 2 WK POST CARCINOGEN TREATMENT (STUDY DURATION: 10 MO), Route [Inhibitor]: SUBCUTANEOUS, Species: RAT, Strain/Sex: LEWIS/FEMALE, Target Tissue: Type of Lesion: MAMMARY GLAND: TUMOR, Dose [Carcinogen]: 50 MG/KG BW ONCE AT 7 WK OF AGE) | tumour outcome (control, treated, inhibition, significance) (Carcinogen: N-METHYL-N-NITROSOUREA, 684-93-5, 30 MG IN SILASTIC CAPSULES FOR 3 WK IMPLANTED 2 WK POST CARCINOGEN TREATMENT (STUDY DURATION: 10 MO), Route [Inhibitor]: SUBCUTANEOUS, Species: RAT, Strain/Sex: LEWIS/FEMALE, Target Tissue: Type of Lesion: MAMMARY GLAND: TUMOR, Dose [Carcinogen]: 50 MG/KG BW ONCE AT 7 WK OF AGE) | tumour outcome (control, treated, inhibition, significance) (Carcinogen: N-METHYL-N-NITROSOUREA, 684-93-5, 100 UG IN SILASTIC CAPSULES FOR 2 WK IMPLANTED 2 WK POST CARCINOGEN TREATMENT (STUDY DURATION: 10 MO), Route [Inhibitor]: SUBCUTANEOUS, Species: RAT, Strain/Sex: LEWIS/FEMALE, Target Tissue: Type of Lesion: MAMMARY GLAND: TUMOR, Dose [Carcinogen]: 50 MG/KG BW ONCE AT 7 WK OF AGE) | tumour outcome (control, treated, inhibition, significance) (Carcinogen: N-METHYL-N-NITROSOUREA, 684-93-5, 100 UG IN SILASTIC CAPSULES FOR 3 WK IMPLANTED 2 WK POST CARCINOGEN TREATMENT (STUDY DURATION: 10 MO), Route [Inhibitor]: SUBCUTANEOUS, Species: RAT, Strain/Sex: LEWIS/FEMALE, Target Tissue: Type of Lesion: MAMMARY GLAND: TUMOR, Dose [Carcinogen]: 50 MG/KG BW ONCE AT 7 WK OF AGE) | tumour outcome (control, treated, inhibition, significance) (Carcinogen: N-METHYL-N-NITROSOUREA, 684-93-5, 200 UG IN SILASTIC CAPSULES FOR 1 WK IMPLANTED 2 WK POST CARCINOGEN TREATMENT (STUDY DURATION: 10 MO), Route [Inhibitor]: SUBCUTANEOUS, Species: RAT, Strain/Sex: LEWIS/FEMALE, Target Tissue: Type of Lesion: MAMMARY GLAND: TUMOR, Dose [Carcinogen]: 50 MG/KG BW ONCE AT 7 WK OF AGE) | tumour outcome (control, treated, inhibition, significance) (Carcinogen: N-METHYL-N-NITROSOUREA, 684-93-5, 200 UG IN SILASTIC CAPSULES FOR 3 WK IMPLANTED 2 WK POST CARCINOGEN TREATMENT (STUDY DURATION: 10 MO), Route [Inhibitor]: SUBCUTANEOUS, Species: RAT, Strain/Sex: LEWIS/FEMALE, Target Tissue: Type of Lesion: MAMMARY GLAND: TUMOR, Dose [Carcinogen]: 50 MG/KG BW ONCE AT 7 WK OF AGE)
1 | O=[Se](=O)(O)O | 12/31 (39%), 7/24 (29%), 26%, not calculated | 12/31 (39%), 2/23 (9%), 77%, p<0.08 |  |  |  |  |  |  |  |  |  |  |  | 
2 | C[C@]12CC[C@@H]3c4ccc(O)cc4CC[C@H]3[C@@H]1CC[C@@H]2O |  |  | 19/30 (63%), 6/23 (26%), 59%, not significant | 14/19 (74%), 12/20 (60%), 19%, not calculated | 0/21 (0%), 7/22 (32%), -100%, not calculated | 19/21 (91%), 13/22 (59%), 35%, p<0.05 | 10/20 (50%), 1/28 (4%), 92%, p<0.01 | 10?20 (50%), 7/16 (44%), 12%, not significant | 11/11 (100%), 8/11 (73%), 27%, not significant | 11/11 (100%), 2/12 (17%), 83%, p<0.001 | 13/15 (87%), 7/16 (44%), 49%, p<0.05 | 11/11 (100%), 2/12 (17%), 83%, p<0.001 | 13/15 (87%), 3/15 (20%), 77%, p<0.01 | 11/11 (100%), 2/12 (17%), 83%, p<0.001
